Measured values: PubChem BioAssay (NCI)
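Following 48 hours of exposure in 96-well plates, responses at five concentrations were used to interpolate endpoints linearly. Definition used: TGI = concentration required for complete inhibition of growth.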

Assays:
Experiment in all cases: NCI-60 cell line screen, 48 h
OVCAR-8 ovarian = system: OVCAR-8 ovarian
SNB-19 CNS = system: SNB-19 CNS
MALME-3M melanoma = system: MALME-3M melanoma
IGROV1 ovarian = system: IGROV1 ovarian
TK-10 renal = system: TK-10 renal
UACC-257 melanoma = system: UACC-257 melanoma

Row | SMILES | TGI (OVCAR-8 ovarian) [µM] | TGI (SNB-19 CNS) [µM] | TGI (MALME-3M melanoma) [µM] | TGI (IGROV1 ovarian) [µM] | TGI (TK-10 renal) [µM] | TGI (UACC-257 melanoma) [µM]
1 | CC[C@@]1(O)C(=O)OCc2c1cc1n(c2=O)Cc2c-1nc1ccccc1c2/C=N\NC(=O)C(C)N (stereo not given in full) | 5.26 | 58.7 | > 91.9 | > 100 | > 100 | 28.7
2 | Cc1nc(C)c(N2CCN(C#N)CC2)c(=O)[nH]1 | > 100 | > 100 | > 100 | > 100 | > 100 | > 100
3 | CC1(C)O[C@@H]2[C@@H]3OC(=O)C[C@@H]3[C@@H](COCc3ccccc3)[C@@H]2O1 | > 100 | > 100 | > 100 | > 100 | > 100 | > 100
4 | CCOP(=O)(OCC)/C(C#N)=C/c1c(C)[nH]c2ccccc12 | > 100 | > 100 | > 100 | > 100 | > 100 | > 100
5 | CCOC(=O)c1cc(-c2ccc(Cl)cc2)c([N+](=O)[O-])n1C | > 10 | > 10 | > 10 | > 10 | > 10 | > 10
6 | COC(=O)CCC(=O)c1ccc2c(c1)CC1(C2)Cc2ccc3c(c2C1)CCCC3=O (stereo not given) | > 100 | > 100 | > 68.1 | > 100 | > 100 | 54.6
7 | COC(Cc1ccccc1)NC(C)=O (stereo not given) | > 100 | > 100 | > 100 | > 100 | > 100 | > 100
8 | COC(=O)C1CCC(=O)N1C(c1ccc2c(c1)OCO2)c1ccc2c(c1)OCO2 (stereo not given) | > 100 | > 100 | > 100 | > 100 | > 100 | > 100
9 | Cc1nc2c(ncn2CCO)c(=O)[nH]1 | > 100 | > 100 | > 100 | > 100 | > 100 | > 100
10 | CN(C(=O)c1cccs1)C(=S)N1CCN(c2ccccc2)CC1 | > 100 | > 100 | > 100 | > 100 | > 100 | > 100
11 | CCCCCC(/C=N/N)C(O)(C(F)(F)F)C(F)(F)F (stereo not given) | > 10 | > 10 | 6.69 | > 10 | > 10 | > 10
12 | CC1(C)OC(=S)N(c2ccccc2)C12C=Cc1cc3ccccc3cc1O2 (stereo not given) | > 100 | > 100 |  | > 100 | > 100 | > 100
13 | O=C1C[C@H]2[C@H](c3ccc(Br)cc3)[C@H]3C(=O)c4ccccc4NC(=O)[C@@H]3[C@@]2(O)c2ccccc2N1 | > 100 | > 100 | 45.5 | 33.4 | 56.8 | 54.1
14 | Cc1cccc(NC(=S)N/N=C(/c2ccccc2)c2ccccn2)c1 | 15.4 | 20 | 12.6 | 16.7 | 16 | 1.57
15 | Cc1cc2[nH]c3c(C#N)c(-c4ccccc4)c(CN4CCOCC4)c(=O)n3c2cc1C | > 100 | > 100 | > 100 |  | > 100 | > 100
16 | COC(=O)c1scc(N)c1-n1ccc(=O)[nH]c1=O | > 100 | > 100 | > 100 | > 100 | > 100 | > 100
17 | O=C(/C(=C/c1cccs1)c1ccccc1)c1ccccc1 | > 100 | > 100 |  | > 100 | > 100 | > 100
18 | CCCCCCCCCCCCP(=O)(O)OCC(N)C(=O)O (stereo not given) | > 100 | 44.7 | > 100 | > 100 | > 100 | > 100
19 | O=C(N/C(=C\c1ccccc1)C1Nc2ccccc2C(=O)O1)c1ccccc1 (stereo not given) | 51.1 | > 100 | 45.6 | > 100 | > 100 | 58.4
20 | O=C1O[C@H]2[C@@H]3OC(=O)c4cc(O)c(O)c(O)c4-c4c(cc(O)c(O)c4O)C(=O)OC[C@H]2O[C@@H](OC(=O)c2cc(O)c(O)c(O)c2)[C@@H]3OC(=O)c2cc(O)c(O)c3c2[C@@H]2C1=CC(=O)C(O)(O)C2(O)O3 (stereo not given in full) | 40.5 | > 100 | > 100 | > 100 |  | > 100

Row | SMILES | TGI (OVCAR-8 ovarian) [µM] | TGI (SNB-19 CNS) [µM] | TGI (MALME-3M melanoma) [µM] | TGI (IGROV1 ovarian) [µM] | TGI (TK-10 renal) [µM] | TGI (UACC-257 melanoma) [µM]
21 | COc1cc(/C=C(\C#N)c2ccccn2)cc(Br)c1O | > 100 | > 100 | > 100 | > 100 | > 100 | > 100
22 | CCN(CC)C1=Nc2ccccc2-n2c(C)cnc2C1 | > 100 | > 100 | > 100 | > 100 | > 100 | > 100
23 | COc1cccc(-n2c(N)c(-c3nc4cc(C(F)(F)F)ccc4s3)c3ccc([N+](=O)[O-])cc3c2=O)c1 |  | > 100 | > 100 |  | > 100 | > 100
24 | CC(NC(=O)C(N)CC(=O)O)NC(=O)N1CCCC1 (stereo not given) | > 100 | > 100 | > 100 | > 100 | > 100 | > 100
25 | Cc1cc(C#N)c(Nc2c(C)cccc2[N+](=O)[O-])s1 | > 100 | > 100 | 89.3 |  |  | > 100
26 | COc1ccc(-c2nnc(CCCCCCCCc3nnc(-c4ccc(OC)cc4)o3)o2)cc1 | > 100 | > 100 | > 100 | > 100 | > 100 | > 100
27 | CC(=O)Nc1ccc(-c2nc3ccccc3s2)cc1O | > 100 | > 100 |  | 57.7 | > 100 | > 100
28 | C[C@]12CCC(=O)C=C1CC[C@@H]1C2CC[C@]2(C)Nc3c(ncn3-c3ccc(F)cc3)CC12 (stereo not given in full) | > 100 | > 100 | 70.4 | > 100 | > 100 | 66.2
29 | CP(C)(=S)P(C)(C)=S | > 100 | > 100 | > 100 | > 100 | > 100 | > 100
30 | CCOC(=O)C1(Cc2ccccc2)Cc2ccccc2C1=O (stereo not given) | > 100 |  | 52.3 | > 100 | > 100 | 
31 | Cc1n[nH]c(=O)n1N1C(=O)c2ccccc2C1=O | > 100 | > 100 | > 100 | > 100 | > 100 | > 100
32 | CN(C)/C=N/S(=O)(=O)c1nn2c(C=O)c(-c3ccc(-c4ccc([N+](=O)[O-])cc4)o3)nc2s1 | > 38.8 | 45.5 | 4.15 | 4.42 | 15.1 | 24.3
33 | CC(=O)OC1COC(Nn2c(=O)[nH]c3ccccc3c2=O)C(OC(C)=O)C1OC(C)=O (stereo not given) | > 100 | > 100 |  | > 100 | > 100 | > 100
34 | Cc1ccc(C)c(NC(=O)C(Cc2c[nH]c3ccccc23)NC(=O)OCc2ccccc2)c1 (stereo not given) | > 100 | 27.6 | 98.9 | 70.8 | 39.2 | 34.3
35 | c1ccc2c(c1)C(=Nc1ccc(N=C3c4ccccc4-c4ccccc43)cc1)c1ccccc1-2 | > 100 | > 100 | > 100 | > 100 | > 100 | > 100
36 | Cc1c2cccc-2c(OCCO)cc2c1[nH]c1ccccc12 | 15.7 | 18.6 | 3.49 | 8.92 | 14.2 | 10.7
37 | CCCCOC(=O)C1CN2C(=NC1(C(F)(F)F)C(F)(F)F)Sc1ccccc12 (stereo not given) | > 100 | > 100 | > 100 | > 100 | > 100 | > 100
38 | O=C(O)C(F)(OC(F)(F)C(F)(OC(F)(F)C(F)(F)C(F)(F)F)C(F)(F)F)C(F)(F)F (stereo not given) | > 100 | > 100 | > 100 | > 100 | > 100 | > 100
39 | OCSc1nn(CO)c(=S)s1 | 32.8 | 59.6 | 44.8 | 47.8 | > 100 | 48.1
40 | CC1Cc2cc(O)ccc2C2[C@@H]1C1CC[C@H](O)[C@@]1(C)C[C@@H]2O[N+](=O)[O-] (stereo not given in full) | 74 | 98.7 | > 79.6 | > 100 | 63.8 | 72.3

Row | SMILES | TGI (OVCAR-8 ovarian) [µM] | TGI (SNB-19 CNS) [µM] | TGI (MALME-3M melanoma) [µM] | TGI (IGROV1 ovarian) [µM] | TGI (TK-10 renal) [µM] | TGI (UACC-257 melanoma) [µM]
41 | CCOP(C)(=O)C(Nc1ccc(F)cc1)c1ccc(F)cc1 (stereo not given) | > 100 | > 100 | > 100 | > 100 | > 100 | > 100
42 | COC1(C)C=NCC(C)(C)NC(=O)C(C)(OC)C=NCC(C)(C)NC1=O (stereo not given) | > 10 | > 10 | > 10 | > 10 | > 10 | > 10
43 | C[C@@H]1OC(=O)/C(=C\N(C)C)[C@H]2CC(=O)N(CCc3cn(S(=O)(=O)C(F)(F)F)c4ccccc34)C[C@H]12 |  | > 100 | > 100 | > 100 | > 100 | > 100
44 | CCCCP(CCCC)(CCCC)=C(C(=O)OC)C(C(=O)OC)=C1SC(C(=O)OC)=C(C(=O)OC)S1 | 48.8 | 49 | 41.1 | 23.8 | > 100 | 37.3
45 | C/C(=N\Nc1nc2ccccc2o1)c1ccncn1 | 35.7 | > 100 | 97.5 | 30.9 | > 63.4 | > 27.5
46 | O=C1OC(c2ccccc2)N/C1=C\c1ccc2c(c1)OCO2 (stereo not given) | > 100 | > 100 |  | > 100 | > 100 | > 100
47 | O=C1NN(c2ccccc2)C(=O)C2C3c4ccccc4C(c4ccccc43)C12 (stereo not given) | > 100 | > 100 | > 100 | > 100 | > 100 | > 100
48 | CC1(C)CC[C@]2(C(=O)O)CC[C@]3(C)C(=CC[C@@H]4[C@@]5(C)CC[C@H](OC6OC(CO)C(O)C(O)C6OC6OC(CO)C(O)C(O)C6O)C(C)(C)[C@@H]5CC[C@]43C)[C@@H]2C1 (stereo not given in full) | 35.2 | 32.8 | 30.1 | 34.6 |  | 42
49 | CN1CCN(c2ccc(-n3cc(C(=O)O)c(=O)c4cc(F)c(N5CCN(C)CC5)cc43)nc2)CC1 | > 100 | > 100 | > 100 | > 100 | > 100 | > 100
50 | Cn1cnc([N+](=O)[O-])c1Sc1nc(N)nc2c1ncn2Cc1ccccc1 | 72.2 | > 100 | 30.8 | > 100 | 41.9 | 30.1
51 | CC1(C)C2CCC1(CC(=O)O)C(Cl)C2 (stereo not given) | > 100 | > 100 | > 100 | > 100 | > 100 | > 100
52 | O=C(O)c1cc(Sc2ccc([N+](=O)[O-])c(C(=O)O)c2)ccc1[N+](=O)[O-] | > 100 | > 100 | > 78.9 | > 100 | > 100 | > 100
53 | CC(=O)OCc1cn(S(=O)(=O)c2ccc(C)cc2)cn1 | > 100 | > 100 | > 100 | > 100 | > 100 | 
54 | CCCCCCCC/C=C/CCCCCCCC1CC(O)C(=O)O1 (stereo not given) | > 100 | > 100 | > 100 | > 100 | > 100 | > 100
55 | COc1cc(OC)nc(Nc2c(C#N)c3nc4ccccc4n3c3ccccc23)n1 | > 100 | 86.2 |  | > 100 | 74.2 | > 100
56 | C=C(C(=O)O)[C@@H]1C[C@@H]2O[C@H]1CC(C)=CCC/C(C)=C/CC[C@@]2(C)O | > 100 | > 100 | > 100 | > 100 | > 100 | > 100
57 | Cc1nn(C)c2c1C(=O)N(C)CC(=O)N2C | > 100 | > 100 | > 100 | > 100 | > 100 | > 100
58 | Cc1cc(-c2nc3cc(F)c(F)cc3s2)ccc1N | > 100 | > 100 | > 100 |  |  | > 100
59 | CCNc1ncnc2n[nH]nc12 | > 100 | > 100 | > 100 | > 100 | > 100 | > 100
